# Test results as given in patent US20230085307A1, “PYRIDAZINONE COMPOUND AND HERBICIDE” (NISSAN CHEMICAL CORPORATION, priority 2019, published 2023).
# What was measured:
# Chinese sprangletop = experiment: Test Example 3: herbicidal effect by foliage application, Wagner pot (Table 18, symbol D); assay type: in vivo, chinese sprangletop (Leptochloa chinensis); conditions: 320 g/ha
# In short: (§1)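 Plants were sown in alluvial soil held under 0.1–0.5 cm standing water and grown 14 days in a greenhouse at 25–30 °C. An emulsifiable formulation, water-diluted to the set dose, was then sprayed onto the foliage, and effects were scored three weeks later using previously defined criteria.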
# windgrass [1] = experiment: Test Example 5: herbicidal effect by foliage application, plastic box (Table 20, symbol L); assay type: in vivo, windgrass (Apera spica-venti); conditions: foliage application, 320 g/ha, evaluated three weeks after application
# In short: (§2)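 Post-emergence foliar test in sterilized diluvial soil. Compound applied as water-diluted emulsion at a predetermined rate to 14-day-old plants; evaluation at three weeks.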
# windgrass [2] = experiment: Test Example 4: herbicidal effect by soil treatment (Table 19, symbol L); assay type: in vivo, windgrass (Apera spica-venti)
# In short: (§3)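 Emulsion of test compound, water-diluted to predetermined amount, sprayed on soil after sowing (seed depth ~1.5 cm, sterilized diluvial soil). Greenhouse, 25–30° C. Effect graded at three weeks post-spray.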
# blackgrass [3] = experiment: Test Example 4: herbicidal effect by soil treatment (Table 19, symbol J); assay type: in vivo, blackgrass (Alopecurus myosuroides)
# In short: as §3
# persian speedwell [4] = experiment: Test Example 4: herbicidal effect by soil treatment (Table 19, symbol R); assay type: in vivo, Persian speedwell (Veronica persica)
# In short: as §3
# green foxtail [5] = experiment: Test Example 4: herbicidal effect by soil treatment (Table 19, symbol G); assay type: in vivo, green foxtail (Setaria viridis)
# In short: as §3
# green foxtail [6] = experiment: Test Example 5: herbicidal effect by foliage application, plastic box (Table 20, symbol G); assay type: in vivo, green foxtail (Setaria viridis); conditions: foliage application, 320 g/ha, evaluated three weeks after application
# In short: as §2
# velvetleaf [7] = experiment: Test Example 5: herbicidal effect by foliage application, plastic box (Table 20, symbol M); assay type: in vivo, velvetleaf (Abutilon theophrasti); conditions: foliage application, 320 g/ha, evaluated three weeks after application
# In short: as §2
# wild oat [8] = experiment: Test Example 5: herbicidal effect by foliage application, plastic box (Table 20, symbol I); assay type: in vivo, wild oat (Avena fatua); conditions: foliage application, 320 g/ha, evaluated three weeks after application
# In short: as §2
# barnyard grass [9] = experiment: Test Example 4: herbicidal effect by soil treatment (Table 19, symbol H); assay type: in vivo, barnyard grass (Echinochloa crus-galli)
# In short: as §3
# redroot pigweed [10] = experiment: Test Example 4: herbicidal effect by soil treatment (Table 19, symbol N); assay type: in vivo, redroot pigweed (Amaranthus retroflexus)
# In short: as §3
# wild oat [11] = experiment: Test Example 4: herbicidal effect by soil treatment (Table 19, symbol I); assay type: in vivo, wild oat (Avena fatua)
# In short: as §3
# persian speedwell [12] = experiment: Test Example 5: herbicidal effect by foliage application, plastic box (Table 20, symbol R); assay type: in vivo, Persian speedwell (Veronica persica); conditions: foliage application, 320 g/ha, evaluated three weeks after application
# In short: as §2
# lambsquarters [13] = experiment: Test Example 4: herbicidal effect by soil treatment (Table 19, symbol O); assay type: in vivo, lambsquarters (Chenopodium album)
# In short: as §3
# oval-leafed pondweed = experiment: Test Example 1: herbicidal activity, application before weed generation under submerged conditions (Table 16, symbol C); assay type: in vivo, oval-leafed pondweed (Monochoria vaginalis); conditions: 320 g/ha applied herbicide
# In short: (§4)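 Emulsion formulation, water-diluted to set dose, was put onto the flooded surface (4 cm depth, alluvial soil) the same day weeds were sown and 2.5-leaf rice transplanted. After 3 weeks at 25-30 °C under glass, each species was rated 0 (≤5% kill) to 5 (≥90% kill).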
# blackgrass [14] = experiment: Test Example 5: herbicidal effect by foliage application, plastic box (Table 20, symbol J); assay type: in vivo, blackgrass (Alopecurus myosuroides); conditions: foliage application, 320 g/ha, evaluated three weeks after application
# In short: as §2
# Italian ryegrass [15] = experiment: Test Example 5: herbicidal effect by foliage application, plastic box (Table 20, symbol K); assay type: in vivo, Italian ryegrass (Lolium multiflorum); conditions: foliage application, 320 g/ha, evaluated three weeks after application
# In short: as §2
# barnyard grass [16] = experiment: Test Example 3: herbicidal effect by foliage application, Wagner pot (Table 18, symbol H); assay type: in vivo, barnyard grass (Echinochloa crus-galli); conditions: 320 g/ha
# In short: as §1
# southern crabgrass [17] = experiment: Test Example 5: herbicidal effect by foliage application, plastic box (Table 20, symbol F); assay type: in vivo, southern crabgrass (Digitaria ciliaris); conditions: foliage application, 320 g/ha, evaluated three weeks after application
# In short: as §2
# Italian ryegrass [18] = experiment: Test Example 4: herbicidal effect by soil treatment (Table 19, symbol K); assay type: in vivo, Italian ryegrass (Lolium multiflorum)
# In short: as §3
# velvetleaf [19] = experiment: Test Example 4: herbicidal effect by soil treatment (Table 19, symbol M); assay type: in vivo, velvetleaf (Abutilon theophrasti)
# In short: as §3
# chickweed [20] = experiment: Test Example 4: herbicidal effect by soil treatment (Table 19, symbol P); assay type: in vivo, common chickweed (Stellaria media)
# In short: as §3
# late watergrass = experiment: Test Example 1: herbicidal activity, application before weed generation under submerged conditions (Table 16, symbol A); assay type: in vivo, late watergrass (Echinochloa oryzicola); conditions: 320 g/ha applied herbicide
# In short: as §4
# lambsquarters [21] = experiment: Test Example 5: herbicidal effect by foliage application, plastic box (Table 20, symbol O); assay type: in vivo, lambsquarters (Chenopodium album); conditions: foliage application, 320 g/ha, evaluated three weeks after application
# In short: as §2
# rice flat sedge = experiment: Test Example 3: herbicidal effect by foliage application, Wagner pot (Table 18, symbol E); assay type: in vivo, rice flat sedge (Cyperus iria); conditions: 320 g/ha
# In short: as §1
# chickweed [22] = experiment: Test Example 5: herbicidal effect by foliage application, plastic box (Table 20, symbol P); assay type: in vivo, common chickweed (Stellaria media); conditions: foliage application, 320 g/ha, evaluated three weeks after application
# In short: as §2
# redroot pigweed [23] = experiment: Test Example 5: herbicidal effect by foliage application, plastic box (Table 20, symbol N); assay type: in vivo, redroot pigweed (Amaranthus retroflexus); conditions: foliage application, 320 g/ha, evaluated three weeks after application
# In short: as §2
# barnyard grass [24] = experiment: Test Example 5: herbicidal effect by foliage application, plastic box (Table 20, symbol H); assay type: in vivo, barnyard grass (Echinochloa crus-galli); conditions: foliage application, 320 g/ha, evaluated three weeks after application
# In short: as §2
# southern crabgrass [25] = experiment: Test Example 4: herbicidal effect by soil treatment (Table 19, symbol F); assay type: in vivo, southern crabgrass (Digitaria ciliaris)
# In short: as §3
# Japanese bulrush = experiment: Test Example 1: herbicidal activity, application before weed generation under submerged conditions (Table 16, symbol B); assay type: in vivo, Japanese bulrush (Schoenoplectus juncoides); conditions: 320 g/ha applied herbicide
# In short: as §4
# [26] = amount of applied herbicide 320 g/ha
SMILES,"herbicidal effect on D (Chinese sprangletop), rating 0-5 (Chinese sprangletop)",herbicidal effect on L: windgrass (windgrass [1]),herbicidal effect on G: green foxtail (green foxtail [6]),herbicidal effect on M: velvetleaf (velvetleaf [7]),herbicidal effect on I: wild oat (wild oat [8]),herbicidal effect on R: persian speedwell (persian speedwell [12]),Herbicidal effect on C: oval-leafed pondweed (grade 0-5) (oval-leafed pondweed),herbicidal effect on J: blackgrass (blackgrass [14]),herbicidal effect on K: Italian ryegrass (Italian ryegrass [15]),"herbicidal effect on H (barnyard grass), rating 0-5 (barnyard grass [16])",herbicidal effect on F: southern crabgrass (southern crabgrass [17]),Herbicidal effect on A: late watergrass (grade 0-5) (late watergrass),herbicidal effect on O: lambsquarters (lambsquarters [21]),"herbicidal effect on E (rice flat sedge), rating 0-5 (rice flat sedge)",herbicidal effect on P: chickweed (chickweed [22]),herbicidal effect on N: redroot pigweed (redroot pigweed [23]),herbicidal effect on H: barnyard grass (barnyard grass [24]),Herbicidal effect on B: Japanese bulrush (grade 0-5) (Japanese bulrush),further results
Cc1nn(C)c(=O)c(-c2c(-c3ccc(Cl)c(Cl)c3)sc3ccc(F)cc23)c1O [2-081],3 (Herbicidal rate of 40% or more and less than 70%),5 (Herbicidal rate of 90% or more (almost completely withered)),5 (Herbicidal rate of 90% or more (almost completely withered)),5 (Herbicidal rate of 90% or more (almost completely withered)),4 (Herbicidal rate of 70% or more and less than 90%),5 (Herbicidal rate of 90% or more (almost completely withered)),0 (Herbicidal rate of 5% or less (almost no effect)),2 (Herbicidal rate of 20% or more and less than 40%),5 (Herbicidal rate of 90% or more (almost completely withered)),5 (Herbicidal rate of 90% or more (almost completely withered)),4 (Herbicidal rate of 70% or more and less than 90%),4 (Herbicidal rate of 70% or more and less than 90%),5 (Herbicidal rate of 90% or more (almost completely withered)),5 (Herbicidal rate of 90% or more (almost completely withered)),5 (Herbicidal rate of 90% or more (almost completely withered)),5 (Herbicidal rate of 90% or more (almost completely withered)),5 (Herbicidal rate of 90% or more (almost completely withered)),2 (Herbicidal rate of 20% or more and less than 40%),"herbicidal effect rating, L: windgrass (windgrass [2]; 320 g/ha): 0 (Herbicidal rate of 5% or less (almost no effect)); herbicidal effect rating, J: blackgrass (blackgrass [3]; 320 g/ha): 0 (Herbicidal rate of 5% or less (almost no effect)); herbicidal effect rating, R: persian speedwell (persian speedwell [4]; 320 g/ha): 4 (Herbicidal rate of 70% or more and less than 90%); herbicidal effect rating, G: green foxtail (green foxtail [5]; 320 g/ha): 0 (Herbicidal rate of 5% or less (almost no effect)); herbicidal effect rating, H: barnyard grass (barnyard grass [9]; 320 g/ha): 0 (Herbicidal rate of 5% or less (almost no effect)); herbicidal effect rating, N: redroot pigweed (redroot pigweed [10]; 320 g/ha): 5 (Herbicidal rate of 90% or more (almost completely withered)); herbicidal effect rating, I: wild oat (wild oat [11]; 320 g/ha): 0 (Herbicidal rate of 5% or less (almost no effect)); herbicidal effect rating, O: lambsquarters (lambsquarters [13]; 320 g/ha): 4 (Herbicidal rate of 70% or more and less than 90%); herbicidal effect rating, K: Italian ryegrass (Italian ryegrass [18]; 320 g/ha): 4 (Herbicidal rate of 70% or more and less than 90%); herbicidal effect rating, M: velvetleaf (velvetleaf [19]; 320 g/ha): 3 (Herbicidal rate of 40% or more and less than 70%); herbicidal effect rating, P: chickweed (chickweed [20]; 320 g/ha): 3 (Herbicidal rate of 40% or more and less than 70%); herbicidal effect rating, F: southern crabgrass (southern crabgrass [25]; 320 g/ha): 0 (Herbicidal rate of 5% or less (almost no effect))"
Cc1nn(C)c(=O)c(-c2c(-c3ccc(OC(C)C)cc3)sc3ccc(Cl)cc23)c1O [2-107],0 (Herbicidal rate of 5% or less (almost no effect)),4 (Herbicidal rate of 70% or more and less than 90%),4 (Herbicidal rate of 70% or more and less than 90%),3 (Herbicidal rate of 40% or more and less than 70%),0 (Herbicidal rate of 5% or less (almost no effect)),5 (Herbicidal rate of 90% or more (almost completely withered)),0 (Herbicidal rate of 5% or less (almost no effect)),3 (Herbicidal rate of 40% or more and less than 70%),0 (Herbicidal rate of 5% or less (almost no effect)),4 (Herbicidal rate of 70% or more and less than 90%),3 (Herbicidal rate of 40% or more and less than 70%),2 (Herbicidal rate of 20% or more and less than 40%),3 (Herbicidal rate of 40% or more and less than 70%),2 (Herbicidal rate of 20% or more and less than 40%),5 (Herbicidal rate of 90% or more (almost completely withered)),4 (Herbicidal rate of 70% or more and less than 90%),4 (Herbicidal rate of 70% or more and less than 90%),0 (Herbicidal rate of 5% or less (almost no effect)),"L: windgrass, herbicidal effect rating (windgrass [2]; [26]): 0 (Herbicidal rate of 5% or less (almost no effect)); J: blackgrass, herbicidal effect rating (blackgrass [3]; [26]): 0 (Herbicidal rate of 5% or less (almost no effect)); R: persian speedwell, herbicidal effect rating (persian speedwell [4]; [26]): 5 (Herbicidal rate of 90% or more (almost completely withered)); G: green foxtail, herbicidal effect rating (green foxtail [5]; [26]): 0 (Herbicidal rate of 5% or less (almost no effect)); H: barnyard grass, herbicidal effect rating (barnyard grass [9]; [26]): 0 (Herbicidal rate of 5% or less (almost no effect)); N: redroot pigweed, herbicidal effect rating (redroot pigweed [10]; [26]): 0 (Herbicidal rate of 5% or less (almost no effect)); I: wild oat, herbicidal effect rating (wild oat [11]; [26]): 0 (Herbicidal rate of 5% or less (almost no effect)); O: lambsquarters, herbicidal effect rating (lambsquarters [13]; [26]): 0 (Herbicidal rate of 5% or less (almost no effect)); K: Italian ryegrass, herbicidal effect rating (Italian ryegrass [18]; [26]): 0 (Herbicidal rate of 5% or less (almost no effect)); M: velvetleaf, herbicidal effect rating (velvetleaf [19]; [26]): 0 (Herbicidal rate of 5% or less (almost no effect)); P: chickweed, herbicidal effect rating (chickweed [20]; [26]): 0 (Herbicidal rate of 5% or less (almost no effect)); F: southern crabgrass, herbicidal effect rating (southern crabgrass [25]; [26]): 0 (Herbicidal rate of 5% or less (almost no effect))"
